Measured values published in PubChem BioAssay (NCI).
Several values for one entry are separate records, joined by “and”; a condition that tells them apart may be missing. Equal entries are not always repeated.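 A five-concentration, 48-hour dose response in 96-well plates underlies each endpoint, interpolated linearly between surrounding concentrations. GI50: concentration for 50% inhibition of growth. TGI is the concentration that stops growth completely.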

Assays:
Assay in all cases: NCI anticancer screen, dose series, 48 h
A549 NSCLC = test system: A549 NSCLC
BT-549 breast = test system: BT-549 breast
CCRF-CEM leukemia = test system: CCRF-CEM leukemia
HL-60(TB) leukemia = test system: HL-60(TB) leukemia
IGROV1 ovarian = test system: IGROV1 ovarian
NCI/ADR-RES ovarian = test system: NCI/ADR-RES ovarian
OVCAR-3 ovarian = test system: OVCAR-3 ovarian
OVCAR-4 ovarian = test system: OVCAR-4 ovarian
RPMI-8226 leukemia = test system: RPMI-8226 leukemia
UO-31 renal = test system: UO-31 renal

SMILES | GI50 (A549 NSCLC) | TGI (A549 NSCLC) | GI50 (BT-549 breast) | TGI (BT-549 breast) | GI50 (CCRF-CEM leukemia) | TGI (CCRF-CEM leukemia) | GI50 (HL-60(TB) leukemia) | TGI (HL-60(TB) leukemia) | GI50 (IGROV1 ovarian) | TGI (IGROV1 ovarian) | GI50 (NCI/ADR-RES ovarian) | TGI (NCI/ADR-RES ovarian) | GI50 (OVCAR-3 ovarian) | TGI (OVCAR-3 ovarian) | GI50 (OVCAR-4 ovarian) | TGI (OVCAR-4 ovarian) | GI50 (RPMI-8226 leukemia) | TGI (RPMI-8226 leukemia) | GI50 (UO-31 renal) | TGI (UO-31 renal)
Nc1c2ccccc2nc2ccccc12 | 1.52 µM and 2.87 µM | 3.94 µM and 8.81 µM | 4.04 µM and 5.12 µM | 15.4 µM and 26.2 µM | 1.69 µM and 2.3 µM | 7.27 µM and 65.4 µM | 3.05 µM and 1.85 µM | 6.99 µM and 10 µM | 2.12 µM and 3.34 µM | 6.18 µM and 14 µM | 1.44 µM and 1.48 µM | 5.35 µM and 6.21 µM | 2.2 µM and 2.91 µM | 6.77 µM and 8.91 µM | 1.02 µM and 2.69 µM | 6.38 µM and 7.3 µM | 3.26 µM and 1.48 µM | 18.6 µM and 5.94 µM | 1.25 µM and 1.6 µM | 2.75 µM and 7.34 µM
Cc1cc(C)c(CNC(=O)c2cc(Cl)c3c(c2C)O[C@@](C)(C2CCC(N(C)C)CC2)O3)c(=O)[nH]1 (stereo not given in full) | 71.6 µM | > 100 µM | 42 µM | > 100 µM | 49.9 µM | > 100 µM | 61.5 µM | > 100 µM | 70.5 µM | > 100 µM | > 100 µM | > 100 µM | > 100 µM | > 100 µM | 83.9 µM | > 100 µM | 38 µM | > 100 µM | 45.6 µM | > 100 µM
Nc1nc(-c2ccccn2)c(-c2ccc3ncccc3n2)s1 | > 25 µM | > 25 µM | > 25 µM | > 25 µM | > 25 µM | > 25 µM | > 25 µM | > 25 µM | > 25 µM | > 25 µM | > 25 µM | > 25 µM | > 25 µM | > 25 µM | > 25 µM | > 25 µM | > 25 µM | > 25 µM | > 25 µM | > 25 µM
COc1cc2nc(NC3CCC3)nc(NC3CCN(C(C)C)CC3)c2cc1OC | 3.08 µM | 14.5 µM | 1.71 µM | 3.7 µM | 2.21 µM | 5.11 µM | 2.06 µM | 4.05 µM | 7.08 µM | 24 µM | 15.6 µM | 65 µM | 4.23 µM | 16.6 µM | 3.25 µM | 20.9 µM | 1.71 µM | 4.06 µM | 1.43 µM | 2.78 µM
Cc1ccc(CNc2ccc(Cl)cc2NCc2ccc(C)c(O)c2)cc1O | 8.13 µM | 15.3 µM | 6.96 µM | 14.1 µM | 5.02 µM | 17.2 µM | 7.65 µM | 19.2 µM | 8.66 µM | 18 µM | 8.3 µM | 17.8 µM | 7.15 µM | 13.9 µM | 6.63 µM | 14.4 µM | 6.75 µM | 21.9 µM | 5.42 µM | 11.7 µM
CC(=O)O[C@@H]1[C@H]2O[C@H]2[C@H]2O[C@@]2(COC(=O)c2ccccc2)[C@H]1OC(C)=O | – | > 100 µM | – | > 100 µM | – | > 100 µM | – | > 100 µM | – | > 100 µM | – | > 100 µM | – | > 100 µM | – | > 100 µM | – | > 100 µM | – | > 100 µM
